Experiment [1] deals with Protein farnesyltransferase (Mus musculus, UniProt Q61239+Q8K2I1). Kind of experiment: Inhibition of Ras farnesylation in Human Ha-Ras-transformed BALB/c 3T3 cells. The experiment is classed as functional, cell-based.
The target of experiment [2] is Geranylgeranyl transferase type I (Homo sapiens, UniProt P49354+P53609). In words: In vitro inhibitory activity against geranylgeranyltransferase-1 (type I). It counts as protein-complex assay.
The target of experiment [3] is Protein farnesyltransferase (Homo sapiens, UniProt P49354+P49356). In words: In vitro inhibitory activity against farnesyl transferase. It counts as protein-complex assay.
Experiment [4] addresses Protein farnesyl/geranylgeranyl transferase (Homo sapiens) (UniProt P49354+P49356+P53609). In words: Selectivity for farnesyl over geranylgeranyl transferase. It counts as protein-complex assay.

Some results are limits rather than exact numbers.

Drawing on ChEMBL document CHEMBL1136693, “Aryl tetrahydropyridine inhibitors of farnesyltransferase: glycine, phenylalanine and histidine derivatives” (Bioorg Med Chem Lett, 2003), this text covers EC50, IC50 and Selectivity for ten molecules.

In general, EC50 refers to the concentration that produces a half-maximal response. A high value points to lower potency in that assay. A word on the IC50: it is the concentration needed to halve the response being measured. Consider `Cn1cncc1C[C@@H](NCc1ccc(C#N)cc1)C(=O)N1CCC(C#N)=C(c2cccc3ccccc23)C1`, for which a half-maximal effect in experiment [1] (EC50) was put at 190 nM. In experiment [2], this molecule had an IC50 of 3500 nM.

In experiment [3], `CSCC[C@H](NC(=O)C1=C(c2ccccc2C)CN(C(=O)N(Cc2ccccc2)Cc2cncs2)CC1)C(=O)O` returned an IC50 of 0.56 nM.

Take `CN(Cc1ccc(C#N)cc1)[C@H](Cc1cncn1C)C(=O)N1CCC(C#N)=C(c2cccc3ccccc23)C1`: the EC50 in experiment [1] is over 100 nM.

Take `Cn1cncc1CN(CC(=O)N1CCC(C#N)=C(c2cccc3ccccc23)C1)Cc1ccc(C#N)cc1`: in experiment [3], the IC50 is 560 nM.

`Cn1cncc1CN(CC(=O)N1CCC(C#N)=C(c2cccc3ccccc23)C1)Cc1ccccc1` returned an IC50 in experiment [3] of 280 nM.

In experiment [3], `CSCC[C@H](NC(=O)C1=C(c2ccccc2C)CN(C(=O)OC(CCC2CCCCC2)c2cncs2)CC1)C(=O)O` (some centres not stated) yielded a half-maximal inhibitory concentration (IC50) of 0.71 nM.

Turning to `Cn1cncc1C[C@H](NCc1ccc(C#N)cc1)C(=O)N1CCC(C#N)=C(c2cccc3ccccc23)C1`, the IC50 in experiment [3] turned out to be 130 nM.

As to `CCCCN(CCC1CCCCC1)Cc1ccc(C(=O)N[C@@H](CCSC)C(=O)O)c(-c2ccccc2C)c1`, in experiment [1], the EC50 is 16 nM. Besides, the Selectivity in experiment [4] is 75000.

As for `Cn1cncc1CN[C@H](Cc1ccc(C#N)cc1)C(=O)N1CCC(C#N)=C(c2cccc3ccccc23)C1`, the IC50 in experiment [3] came to 240 nM.

`Cn1cncc1CN[C@@H](Cc1ccc(C#N)cc1)C(=O)N1CCC(C#N)=C(c2cccc3ccccc23)C1` came in with an IC50 in experiment [3] of 310 nM.
